Literature values, collected in paper PMC7168327, “Designed Antimicrobial Peptides for Topical Treatment of Antibiotic Resistant Acne Vulgaris” (Antibiotics, 2020).

How the values were obtained:
Conditions in all cases: cited from earlier work
C. acnes HL056PA1 = test system: C. acnes HL056PA1
Description: (§1) Table 1 Growth Inhibition of dAMPs (MICs, µg/mL) against C. acnes Isolates. | column: Antibiotic Sensitivity / Tetra ^#; Antibiotic Sensitivity / Ery ^#; Antibiotic Sensitivity / Clind ^#

C. acnes HL038PA1 = test system: C. acnes HL038PA1
Description: as §1

C. acnes HL043PA2 = test system: C. acnes HL043PA2
Description: as §1

C. acnes HL082PA2 = test system: C. acnes HL082PA2
Description: as §1

C. acnes HL013PA1 = test system: C. acnes HL013PA1
Description: as §1

C. acnes HL007PA1 = test system: C. acnes HL007PA1
Description: as §1

C. acnes HL045PA1 = test system: C. acnes HL045PA1
Description: as §1

C. acnes ATCC6919 = test system: C. acnes ATCC6919
Description: as §1

C. acnes HL053PA1 = test system: C. acnes HL053PA1
Description: as §1

C. acnes HL043PA1 = test system: C. acnes HL043PA1
Description: as §1

C. acnes HL072PA1 = test system: C. acnes HL072PA1
Description: as §1

C. acnes ATCC11827 = test system: C. acnes ATCC11827
Description: as §1

In the case of `CC[C@H]1OC(=O)[C@H](C)[C@@H](O[C@H]2C[C@@](C)(OC)[C@@H](O)[C@H](C)O2)[C@H](C)[C@@H](O[C@@H]2O[C@H](C)C[C@H](N(C)C)[C@H]2O)[C@](C)(O)C[C@@H](C)C(=O)[C@H](C)[C@@H](O)[C@]1(C)O` [Ery, erythromycin], the “Antibiotic Sensitivity, Ery” value (C. acnes HL056PA1) is given as “R (erythromycin resistance MIC ≥ 0.5 μg/mL)”, the “Antibiotic Sensitivity, Ery” value (C. acnes HL038PA1) is given as “R (erythromycin resistance MIC ≥ 0.5 μg/mL)” and the “Antibiotic Sensitivity, Ery” value (C. acnes HL043PA2) is given as “R (erythromycin resistance MIC ≥ 0.5 μg/mL)”. The “Antibiotic Sensitivity, Ery” value (C. acnes HL082PA2) was “R (erythromycin resistance MIC ≥ 0.5 μg/mL)”, the “Antibiotic Sensitivity, Ery” value (C. acnes HL013PA1) was “R (erythromycin resistance MIC ≥ 0.5 μg/mL)” and the “Antibiotic Sensitivity, Ery” value (C. acnes HL007PA1) was “R (erythromycin resistance MIC ≥ 0.5 μg/mL)”. The “Antibiotic Sensitivity, Ery” value (C. acnes HL045PA1) was “R (erythromycin resistance MIC ≥ 0.5 μg/mL)”, the “Antibiotic Sensitivity, Ery” value (C. acnes ATCC6919) was “S (S, sensitive)” and the “Antibiotic Sensitivity, Ery” value (C. acnes HL053PA1) was “R (erythromycin resistance MIC ≥ 0.5 μg/mL)”. The “Antibiotic Sensitivity, Ery” value (C. acnes HL043PA1) was “R (erythromycin resistance MIC ≥ 0.5 μg/mL)”, the “Antibiotic Sensitivity, Ery” value (C. acnes HL072PA1) was “R (erythromycin resistance MIC ≥ 0.5 μg/mL)” and the “Antibiotic Sensitivity, Ery” value (C. acnes ATCC11827) was “S (S, sensitive)”.
For `CN(C)[C@@H]1C(O)=C(C(N)=O)C(=O)[C@@]2(O)C(O)=C3C(=O)c4c(O)cccc4[C@@](C)(O)[C@H]3C[C@@H]12` [Tetra, tetracycline], the “Antibiotic Sensitivity, Tetra” value (C. acnes HL056PA1) is given as “R (resistance to tetracycline (Tetra), MIC ≥ 1.0 μg/mL)”, the “Antibiotic Sensitivity, Tetra” value (C. acnes HL038PA1) is given as “R (resistance to tetracycline (Tetra), MIC ≥ 1.0 μg/mL)” and the “Antibiotic Sensitivity, Tetra” value (C. acnes HL043PA2) is given as “R (resistance to tetracycline (Tetra), MIC ≥ 1.0 μg/mL)”. The “Antibiotic Sensitivity, Tetra” value (C. acnes HL082PA2) was “R (resistance to tetracycline (Tetra), MIC ≥ 1.0 μg/mL)”, the “Antibiotic Sensitivity, Tetra” value (C. acnes HL013PA1) was “R (resistance to tetracycline (Tetra), MIC ≥ 1.0 μg/mL)” and the “Antibiotic Sensitivity, Tetra” value (C. acnes HL007PA1) was “R (resistance to tetracycline (Tetra), MIC ≥ 1.0 μg/mL)”. The “Antibiotic Sensitivity, Tetra” value (C. acnes HL045PA1) was “R (resistance to tetracycline (Tetra), MIC ≥ 1.0 μg/mL)”, the “Antibiotic Sensitivity, Tetra” value (C. acnes ATCC6919) was “S (S, sensitive)” and the “Antibiotic Sensitivity, Tetra” value (C. acnes HL053PA1) was “R (resistance to tetracycline (Tetra), MIC ≥ 1.0 μg/mL)”. The “Antibiotic Sensitivity, Tetra” value (C. acnes HL043PA1) was “R (resistance to tetracycline (Tetra), MIC ≥ 1.0 μg/mL)”, the “Antibiotic Sensitivity, Tetra” value (C. acnes HL072PA1) was “R (resistance to tetracycline (Tetra), MIC ≥ 1.0 μg/mL)” and the “Antibiotic Sensitivity, Tetra” value (C. acnes ATCC11827) was “S (S, sensitive)”.
